In brackets after ≈: the same amount, converted by molar mass. Like-named read-outs stand apart in the source and are kept apart here.

The test system of assay [1] is S. aureus strain ATCC 6538. In words: MIC test (CLSI M7-A6 dilution), S. aureus ATCC 6538. The note with it: for MIC: Staphylococcus aureus. It counts as cell-based, Staphylococcus aureus.
For a further assay, the system named is Staphylococcus aureus. Description: Antibiotic activity towards Staphylococcus aureus (summary statements). It counts as cell-based. The note with it: statement in words.
In the next assay the test system is S. aureus TTC 03.0236. Description: MIC test (CLSI M7-A6 dilution), S. aureus TTC 03.0236. The class given is cell-based. The note with it: Staphylococcus aureus, TTC03.0236; single strain; TTC is internal collection number. As to the method:
(§1) MIC test were performed according to standard methodology: M7-A6-“Methods for Dilution Antimicrobial Susceptibility Tests for Bacteria That Grow Aerobically”; Approved Standard, Sixth Edition Clinical and Laboratory Standards Institute 2005 (CLSI/formerly NCCLS).

Another assay relates to S. aureus TTC 03.0239. In words: MIC test (CLSI M7-A6 dilution), S. aureus TTC 03.0239. The note with it: Staphylococcus aureus, TTC03.0239; single strain; TTC is internal collection number. The class given is cell-based. As to the method:
as §1

In another assay the test system is S. epidermis. In words: MIC test (CLSI M7-A6 dilution), S. epidermis. The class given is cell-based. The note with it: single strain. As to the method:
as §1

Where [2] appears, read: ATCC6538, single strain, Table I, read-out: MIC S. aureus ATTC 6538.
The mark [3] stands for this setting: ATCC6538, Table II, Example 3, read-out: MIC S. aureus ATCC 6538.

As to `O=C(Nc1ccccc1)C(Cl)(Cl)c1nnnn1-c1ccccc1` [NewCo0052, N1-phenyl-2,2-dichloro-2-(1-phenyl-1H-1,2,3,4-tetraazol-5-yl)acetamide], the MIC in assay [1] (setting [2]) was determined as 1.56 µg/mL (≈ 4.48 µM); with S. aureus TTC 03.0236 it was 1.56 µg/mL (≈ 4.48 µM); against S. aureus TTC 03.0239, 1.56 µg/mL (≈ 4.48 µM); in the assay with S. epidermis, 0.78 µg/mL (≈ 2.24 µM). The “antibiotic activity towards Staphylococcus aureus” value in the assay on Staphylococcus aureus is “most notable”. Further, the “efficacy as antimicrobial agents” value in the assay on Staphylococcus aureus was “exceptionally good”.
For `COc1ccccc1NC(=O)C(Cl)(Cl)c1nnnn1-c1ccccc1OC` [NewCo0053, N1-(2-methoxyphenyl)-2,2-dichloro-2-[1-(2-methoxyphenyl)-1H-1,2,3,4-tetraazol-5-yl]acetamide], the MIC was determined as 0.78 µg/mL (≈ 1.91 µM) in assay [1] (setting [2]), 0.78 µg/mL (≈ 1.91 µM) against S. aureus TTC 03.0236, 1.56 µg/mL (≈ 3.82 µM) against S. aureus TTC 03.0239 and 0.78 µg/mL (≈ 1.91 µM) against S. epidermis. The “antibiotic activity towards Staphylococcus aureus” value with Staphylococcus aureus is reported as “most notable”. For the same molecule, in the assay with Staphylococcus aureus, the “efficacy as antimicrobial agents” value is listed as “exceptionally good”.
For the molecule `Cc1ccccc1-n1nnnc1C(Cl)(Cl)C(=O)Nc1ccccc1` [NewCo 0058, 2,2-dichloro-N-phenyl-2-(1-o-tolyl-1H-tetrazol-5-yl)-acetamide], in assay [1] (setting [3]), the MIC was found to be 0.39 µg/mL (≈ 1.08 µM). In the assay on Staphylococcus aureus, the “antibiotic activity towards Staphylococcus aureus” value is “most notable” and the “efficacy as antimicrobial agents” value is given as “exceptionally good”.
Take `Cc1ccccc1-n1nnnc1C(Cl)(Cl)C(=O)NC(C)C` [NewCo 0059, 2,2-dichloro-N-isopropyl-2-(1-o-tolyl-1H-tetrazol-5-yl)-acetamide]: in assay [1] (setting [3]), the MIC was 25 µg/mL (≈ 76.2 µM).
As to `Cc1ccccc1-n1nnnc1C(Cl)(Cl)C(=O)N1CCNCC1` [NewCo 0060, 2,2-dichloro-1-piprazin-1-yl-2-(1-o-tolyl-1H-tetrazol-5-yl)-ethanone], the “MIC S. aureus ATCC 6538” value in assay [1] (Table II, Example 3) worked out at 12.5 µg/mL (≈ 35.2 µM).
On to `Cc1ccccc1-n1nnnc1C(Cl)(Cl)C(=O)Nc1ccncc1` [NewCo 0061, 2,2-dichloro-N-pyridin-4-yl-2-(1-o-tolyl-1H-tetrazol-5-yl)-acetamide], for which the MIC in assay [1] (setting [3]) was 0.78 µg/mL (≈ 2.15 µM). Also, in the assay on Staphylococcus aureus, the “antibiotic activity towards Staphylococcus aureus” value is “most notable” and the “efficacy as antimicrobial agents” value was “exceptionally good”.
As for `Cc1ccccc1-n1nnnc1C(Cl)(Cl)C(=O)NC1CCNCC1` [NewCo 0062, 2,2-dichloro-N-piperidin-4-yl-2-(1-O— tolyl-1H-tetrazol-5-yl)-acetamide], in assay [1] (Table II, Example 3), the “MIC S. aureus ATCC 6538” value amounted to 50 µg/mL (≈ 135 µM).
`Cc1ccccc1-n1nnnc1C(Cl)(Cl)C(N)=O` [NewCo 0063, 2,2-dichloro-2-(1-o-tolyl-1H-tetrazol-5-yl)-acetamide]: in assay [1] (setting [3]), the MIC is 1.56 µg/mL (≈ 5.45 µM). Further, in the assay with Staphylococcus aureus, the “antibiotic activity towards Staphylococcus aureus” value is reported as “most notable” and the “efficacy as antimicrobial agents” value is recorded as “exceptionally good”.
Consider `Cc1ccccc1-n1nnnc1C(Cl)(Cl)C(=O)N(C)C` [NewCo 0064, 2-dichloro-N,N-dimethyl-2-(1-o-tolyl-1H-tetrazol-5-yl)-acetamide], for which the “MIC S. aureus ATCC 6538” value in assay [1] (Table II, Example 3) came to 100 µg/mL (≈ 318 µM).
As to `CN[C@H](CC(C)C)C(=O)N[C@H]1C(=O)N[C@@H](CC(N)=O)C(=O)N[C@H]2C(=O)N[C@H]3C(=O)N[C@H](C(=O)N[C@H](C(=O)O)c4cc(O)cc(O)c4-c4cc3ccc4O)[C@H](O)c3ccc(c(Cl)c3)Oc3cc2cc(c3O[C@@H]2O[C@H](CO)[C@@H](O)[C@H](O)[C@H]2O[C@H]2C[C@](C)(N)[C@H](O)[C@H](C)O2)Oc2ccc(cc2Cl)[C@H]1O` [Vancomycin, reference compound], in assay [1] (ATCC6538, read-out: MIC S. aureus ATCC 6538), the MIC came to 0.78 µg/mL (≈ 0.538 µM).

Usually MIC stands for the smallest concentration in the dilution series that meets the test's criterion for growth inhibition.

For the origin of these results see US20100130509A1, “NOVEL ANTIBIOTICS” (Nederlandse Organisatie voor toegepast-natuurwe- …, priority 2007, published 2010).
